Assay results reported in the kinase profiling compilation of Christmann-Franck et al. (2016).

How the values were obtained:
[1] = target: PIM1 (human) (UniProt P11309); settings: compound 10.0 µM
[2] = target: PRKAA2 (human) (UniProt P54646); settings: compound 10.0 µM
[3] = target: FGFR1 (human) (UniProt P11362); settings: compound 10.0 µM
[4] = system: PRKACA (mouse); settings: compound 10.0 µM; accession and sequence are those of the human protein
[5] = target: AKT1 (human) (UniProt P31749); settings: compound 10.0 µM
AKT1 (human), sequence (P31749 whole entry, looked up): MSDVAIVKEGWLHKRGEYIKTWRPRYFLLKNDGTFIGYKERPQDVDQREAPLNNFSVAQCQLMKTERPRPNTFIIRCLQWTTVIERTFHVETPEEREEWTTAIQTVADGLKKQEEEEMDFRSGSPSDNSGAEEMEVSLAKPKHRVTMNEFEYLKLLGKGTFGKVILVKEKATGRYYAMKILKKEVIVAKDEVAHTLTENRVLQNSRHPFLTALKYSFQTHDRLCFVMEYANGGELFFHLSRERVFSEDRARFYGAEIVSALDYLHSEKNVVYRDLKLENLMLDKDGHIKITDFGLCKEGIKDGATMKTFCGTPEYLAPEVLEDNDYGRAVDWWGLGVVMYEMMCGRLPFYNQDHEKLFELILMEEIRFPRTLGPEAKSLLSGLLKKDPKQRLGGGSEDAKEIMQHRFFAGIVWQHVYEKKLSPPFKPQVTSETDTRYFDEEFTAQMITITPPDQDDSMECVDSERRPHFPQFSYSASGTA

[6] = target: PRKAA1 (human) (UniProt Q13131); settings: compound 10.0 µM
PRKAA1 (human), sequence (Q13131 whole entry, looked up): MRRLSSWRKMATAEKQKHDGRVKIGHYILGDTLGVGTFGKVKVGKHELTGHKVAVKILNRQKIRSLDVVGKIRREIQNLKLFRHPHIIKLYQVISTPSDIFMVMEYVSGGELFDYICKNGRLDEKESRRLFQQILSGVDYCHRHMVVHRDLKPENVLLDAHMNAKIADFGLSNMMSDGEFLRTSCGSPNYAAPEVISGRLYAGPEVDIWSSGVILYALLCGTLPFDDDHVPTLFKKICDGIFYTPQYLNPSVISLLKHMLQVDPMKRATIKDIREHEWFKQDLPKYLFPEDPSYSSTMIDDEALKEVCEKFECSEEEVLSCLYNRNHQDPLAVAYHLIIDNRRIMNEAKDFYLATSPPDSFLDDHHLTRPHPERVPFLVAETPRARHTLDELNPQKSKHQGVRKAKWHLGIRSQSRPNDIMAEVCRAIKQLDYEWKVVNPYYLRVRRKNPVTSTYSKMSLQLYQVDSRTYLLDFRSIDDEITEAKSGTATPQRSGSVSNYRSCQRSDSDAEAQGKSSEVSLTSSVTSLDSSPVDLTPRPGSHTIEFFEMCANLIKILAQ

FGFR1 (human), sequence (P11362 whole entry, looked up): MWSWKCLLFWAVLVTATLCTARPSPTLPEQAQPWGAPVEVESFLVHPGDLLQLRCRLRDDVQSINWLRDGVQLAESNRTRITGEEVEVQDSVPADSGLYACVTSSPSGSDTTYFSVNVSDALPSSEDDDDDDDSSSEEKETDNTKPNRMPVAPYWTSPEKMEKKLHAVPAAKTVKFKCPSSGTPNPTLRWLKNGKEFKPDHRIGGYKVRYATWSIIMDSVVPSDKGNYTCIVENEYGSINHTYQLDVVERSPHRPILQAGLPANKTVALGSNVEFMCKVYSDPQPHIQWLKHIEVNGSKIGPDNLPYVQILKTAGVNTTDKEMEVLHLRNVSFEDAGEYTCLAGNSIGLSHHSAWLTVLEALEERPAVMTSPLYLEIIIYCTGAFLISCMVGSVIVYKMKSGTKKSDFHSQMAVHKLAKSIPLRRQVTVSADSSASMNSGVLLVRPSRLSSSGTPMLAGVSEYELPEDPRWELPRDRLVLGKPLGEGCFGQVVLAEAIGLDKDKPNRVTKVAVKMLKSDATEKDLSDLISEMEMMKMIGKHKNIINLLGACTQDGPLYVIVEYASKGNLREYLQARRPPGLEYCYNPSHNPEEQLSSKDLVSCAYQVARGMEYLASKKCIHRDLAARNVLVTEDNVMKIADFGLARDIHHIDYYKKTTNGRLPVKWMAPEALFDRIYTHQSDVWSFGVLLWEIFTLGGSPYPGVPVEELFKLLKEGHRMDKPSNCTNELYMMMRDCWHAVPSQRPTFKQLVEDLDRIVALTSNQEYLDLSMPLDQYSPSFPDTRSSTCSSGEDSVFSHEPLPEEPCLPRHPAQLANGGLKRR
PIM1 (human), sequence (P11309 whole entry, looked up): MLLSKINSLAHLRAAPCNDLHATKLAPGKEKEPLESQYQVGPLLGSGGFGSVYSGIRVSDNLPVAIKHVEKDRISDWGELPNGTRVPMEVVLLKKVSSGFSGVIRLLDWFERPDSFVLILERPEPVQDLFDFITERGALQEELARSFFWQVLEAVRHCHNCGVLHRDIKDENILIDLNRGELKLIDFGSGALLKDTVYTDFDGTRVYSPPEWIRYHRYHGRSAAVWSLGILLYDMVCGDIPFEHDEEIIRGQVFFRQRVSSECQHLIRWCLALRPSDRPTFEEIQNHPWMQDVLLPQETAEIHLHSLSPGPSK
PRKAA2 (human), sequence (P54646 whole entry, looked up): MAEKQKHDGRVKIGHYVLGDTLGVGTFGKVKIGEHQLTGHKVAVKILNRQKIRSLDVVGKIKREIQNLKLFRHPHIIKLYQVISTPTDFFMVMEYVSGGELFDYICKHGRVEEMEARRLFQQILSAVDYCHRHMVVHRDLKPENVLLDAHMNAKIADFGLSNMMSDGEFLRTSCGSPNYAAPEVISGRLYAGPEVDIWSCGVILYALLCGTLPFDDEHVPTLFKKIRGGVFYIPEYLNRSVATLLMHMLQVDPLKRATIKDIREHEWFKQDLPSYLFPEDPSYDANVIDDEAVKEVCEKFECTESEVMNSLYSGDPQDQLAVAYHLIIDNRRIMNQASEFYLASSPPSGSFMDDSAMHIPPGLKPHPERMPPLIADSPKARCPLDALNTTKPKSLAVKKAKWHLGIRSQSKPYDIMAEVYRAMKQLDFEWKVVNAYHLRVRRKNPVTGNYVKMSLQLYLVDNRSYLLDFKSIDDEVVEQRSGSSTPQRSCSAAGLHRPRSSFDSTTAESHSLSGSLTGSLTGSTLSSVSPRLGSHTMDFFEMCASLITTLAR

Row | inhibition [1] [%] | inhibition [2] [%] | inhibition [3] [%] | inhibition [4] [%] | inhibition [5] [%] | inhibition [6] [%] | Compound
1 |  | 0 | 0 | 0 | 0 | 0 | CCN(CC)CCCCN1c2ccccc2Oc2ccc(Cl)cc21
2 | 0 | 0 | 9 | 12 | 0 | 9 | COc1ccc(C(=O)Nc2sc3c(c2C(N)=O)CCCC3)cc1OC
3 | 50 | 32 | 37 | 21 | 39 | 7 | Fc1ccc(Cl)cc1-c1nc(Nc2ccncc2)c2nccnc2n1
4 | 0 | 4 | 0 | 0 | 5 | 0 | O=C(NC(NC(=S)Nc1ccc(F)c([N+](=O)[O-])c1)C(Cl)(Cl)Cl)C(c1ccccc1)c1ccccc1 (stereo not given)
5 | 27 | 0 | 13 | 1 | 0 | 0 | COc1cc2ncnc(Nc3ccc(F)c(Cl)c3)c2cc1OCCCN1CCOCC1
6 | 0 | 12 | 5 | 0 | 0 | 0 | CC[C@@H](CO)Nc1nc(NCc2ccccc2)c2ncn(C(C)C)c2n1
7 | 8 | 0 | 15 | 7 | 9 | 0 | COc1cc2c(Nc3ccc(NC(=O)c4ccccc4)cc3)ncnc2cc1OCCCN1CCOCC1
8 | 11 | 0 | 9 | 1 | 0 | 0 | c1ccc(-c2n[nH]cc2-c2ccnc3ccccc23)nc1
9 | 0 | 0 | 0 | 3 | 0 | 0 | N#C/C(=C\c1ccc(O)c(O)c1)C(=O)NCc1ccccc1
10 | 0 | 1 | 0 | 0 | 0 | 0 | O=C(Nc1cc(C(F)(F)F)cc(C(F)(F)F)c1)c1cc(Cl)ccc1O
11 | 74 | 0 | 4 | 0 | 0 | 0 | O=c1cc(N2CCOCC2)oc2c1ccc1ccccc12
12 | 4 | 0 | 4 |  | 0 | 0 | O=S(=O)(c1cccc2cnccc12)N1CCCNCC1
13 | 73 | 0 | 32 | 9 | 19 | 0 | O=C1Nc2ccc(I)cc2/C1=C/c1cc(Br)c(O)c(Br)c1
14 | 0 | 0 | 0 | 0 | 0 | 0 | COc1nccc(-c2c(-c3ccc(F)cc3)ncn2[C@H]2CC[C@H](O)CC2)n1
15 | 5 | 0 | 8 | 0 | 1 | 0 | NC(=O)c1ccc(-c2nc(-c3ccccn3)c(-c3ccc4c(c3)OCO4)[nH]2)cc1
16 | 0 | 22 | 26 | 0 | 0 | 32 | Cn1cc(/C=C2/C(=O)Nc3cccnc32)c2ccccc21
17 | 1 | 0 | 10 | 2 | 0 | 13 | Cc1cc(F)c(Nc2ncnc3cc(OCc4ccccc4)ccc23)cc1O
18 | 0 | 62 | 23 | 1 | 8 | 59 | Cc1[nH]c(/C=C2\C(=O)Nc3ccc(S(=O)(=O)Cc4c(Cl)cccc4Cl)cc32)c(C)c1C(=O)N1CCC[C@@H]1CN1CCCC1

Row | inhibition [1] [%] | inhibition [2] [%] | inhibition [3] [%] | inhibition [4] [%] | inhibition [5] [%] | inhibition [6] [%] | Compound
19 | 0 | 0 | 4 | 5 | 0 | 2 | O=c1[nH]nc(Sc2ncc([N+](=O)[O-])s2)n1-c1ccc2c(c1)OCCO2
20 | 23 | 0 | 22 | 11 | 24 | 0 | Cc1cc2nc3c(=O)[nH]c(=O)nc-3n(C)c2cc1C=O
21 | 0 | 0 | 11 | 4 | 0 | 0 | Cc1ccccc1C(=O)c1ccc(Nc2ccc(Br)cc2N)cc1Cl
22 | 14 | 0 | 7 | 5 | 0 | 0 | COc1ccc(Cl)cc1NC(=O)Nc1cc(C)nc2ccccc12
23 | 6 | 3 |  | 13 | 0 | 5 | CC(C)[C@H](CO)Nc1nc(Nc2cc(N)cc(Cl)c2)c2ncn(C(C)C)c2n1
24 | 34 | 7 | 0 | 0 | 0 | 7 | O=c1cc(N2CCOCC2)nc2c3ccccc3ccn12
25 | 0 | 0 | 0 | 0 | 0 | 0 | N#CC(=C(\N)Sc1ccccc1N)/C(C#N)=C(/N)Sc1ccccc1N
26 | 7 | 0 | 13 | 5 | 5 | 0 | Cn1cnc2c(NCc3ccccc3)nc(NCCO)nc21
27 | 78 | 0 | 12 | 0 | 2 | 0 | Nc1ccc(-c2cccc3c(=O)cc(N4CCOCC4)oc23)cc1
28 | 60 | 0 | 19 | 13 | 15 | 0 | O=C1NC(=O)c2cc(Nc3ccc(F)cc3)c(Nc3ccc(F)cc3)cc21
29 | 28 | 0 | 11 | 9 | 3 | 0 | Nc1ncnc2[nH]nc(Nc3ccc(F)cc3)c12
30 | 19 | 0 |  | 19 | 0 | 0 | O=S(=O)(c1cccc2c(O)nccc12)N1CCCNCC1
31 |  | 20 | 50 | 26 | 5 | 11 | CN(C)CCCn1cc(C2=C(c3c[nH]c4ccccc34)C(=O)NC2=O)c2ccccc21
32 | 32 | 5 | 12 | 5 | 3 | 0 | Cn1cc(C2=C(c3ccc(Cl)cc3Cl)C(=O)NC2=O)c2ccccc21
33 | 0 | 0 | 28 | 7 | 0 | 5 | CC(C)[C@H](CO)Nc1nc(Nc2cccc(Cl)c2)c2ncn(C(C)C)c2n1
34 | 0 | 22 | 14 |  | 21 | 17 | O=S(=O)(NCCNC/C=C/c1ccc(Br)cc1)c1cccc2cnccc12
35 | 52 | 1 | 0 | 5 | 1 | 0 | CN1CC[C@H](c2c(O)cc(O)c3c(=O)cc(-c4ccccc4Cl)oc23)[C@H](O)C1
36 | 2 | 0 | 0 | 7 | 0 | 0 | Cc1ccc(NC(=O)c2cccc(N(C)C)c2)cc1NC(=O)c1ccc(O)cc1

Row | Compound | inhibition [1] [%] | inhibition [2] [%] | inhibition [3] [%] | inhibition [4] [%] | inhibition [5] [%] | inhibition [6] [%]
37 | CC(C)[C@H](CO)Nc1nc(Nc2ccc(C(=O)O)c(Cl)c2)c2ncn(C(C)C)c2n1 | 10 | 0 | 59 | 21 | 0 | 0
38 | O=C1NC(=O)c2c1c1c3ccccc3n3c1c1c2c2ccccc2n1C1CCC3O1 | 100 | 70 | 70 | 65 | 78 | 65
39 | CC1=C(O)C(=O)[C@@H]2OC2C1=O (stereo not given in full) | 5 | 0 | 3 | 0 | 0 | 0
40 | CC(=O)c1c(O)c(C)c(O)c(Cc2c(O)c3c(c(C(=O)/C=C/c4ccccc4)c2O)OC(C)(C)C=C3)c1O | 21 | 0 | 45 | 16 | 24 | 0
41 | CO[C@@H]1[C@H](N(C)C(=O)c2ccccc2)C[C@H]2O[C@]1(C)n1c3ccccc3c3c4c(c5c6ccccc6n2c5c31)C(=O)NC4 | 73 |  |  | 63 | 55 | 64
42 | C/C(O)=C(\C#N)C(=O)Nc1cc(Br)ccc1Br | 23 | 0 | 8 | 7 | 0 | 0
43 | O=C1NC(=O)c2c1c1c3ccccc3[nH]c1c1[nH]c3ccccc3c21 | 95 | 69 | 44 | 27 | 22 | 60
